In patent publication US9023789B2, “Amylin analogs and pharmaceutical compositions thereof” (Novo Nordisk A/S, priority 2012, dated 2015):
Numbered stars: 1 amine (or outer) side, 2 acyl side, 3 side chain; on linkers, the order of the positions; unused ones are H or OH. Bridge positions count the residues as written; N and C are the ends. Side chains are listed from the residue outwards. Peptide text beside a SMILES is read from it. * marks the point of attachment. C20 diacid = O=C(O)CCCCCCCCCCCCCCCCCCC(=O)*; γGlu = O=C(O)[C@H](CCC(=O)[*:2])N[*:1]

How the values were obtained:
[1] = ASSAY (III) ThT fibrillation assay for physical stability; assay type: physicochemical
Summary of the method: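 Formulations with 1 μM ThT, pH adjusted as required, incubated at 37 °C with 960 rpm orbital shaking; fluorescence (ex 444/em 485 nm) read every 20 min. Fibrillation reported as mean ThT fluorescence ± SD of 4–8 replicates at time points; polypeptide concentration measured by reverse-phase HPLC before and after, post-centrifugation.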

[2] = target: T1, human amylin receptor (membranes from Amylin 3(a)/CRE-luc cells) (Homo sapiens, UniProt O60896+P30988); assay: ASSAY (V) binding to the human amylin receptor (SPA, 125I-rat amylin);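 also: competition binding of cell membranes (35 ng/µL) mixed with SPA beads in 384-well plates at 40 µL total volume, read by scintillation counting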
T1 construct: expressed in transfected cells
T1 sequence (P30988 25-474): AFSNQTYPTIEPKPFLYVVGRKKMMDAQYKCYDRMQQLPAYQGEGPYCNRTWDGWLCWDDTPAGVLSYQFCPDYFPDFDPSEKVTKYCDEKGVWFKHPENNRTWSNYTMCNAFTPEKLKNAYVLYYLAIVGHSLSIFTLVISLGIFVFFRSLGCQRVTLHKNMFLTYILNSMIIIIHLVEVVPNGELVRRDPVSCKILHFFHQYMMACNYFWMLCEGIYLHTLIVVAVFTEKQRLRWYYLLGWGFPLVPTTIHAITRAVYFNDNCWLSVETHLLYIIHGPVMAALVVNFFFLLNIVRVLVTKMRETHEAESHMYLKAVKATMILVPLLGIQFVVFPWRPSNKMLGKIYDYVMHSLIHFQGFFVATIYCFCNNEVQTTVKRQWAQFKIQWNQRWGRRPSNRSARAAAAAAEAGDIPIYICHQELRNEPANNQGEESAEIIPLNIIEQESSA
T1 sequence (O60896 24-148 partner): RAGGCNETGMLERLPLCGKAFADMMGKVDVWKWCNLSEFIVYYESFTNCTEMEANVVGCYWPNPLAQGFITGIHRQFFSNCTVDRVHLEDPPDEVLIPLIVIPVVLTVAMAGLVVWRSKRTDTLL

[3] = target: T2, rat calcitonin receptor (Rattus norvegicus, UniProt P32214); assay: ASSAY (VIII) binding to the rat calcitonin receptor; conditions: Table 7, read-out: rCTR bind IC50
T2 construct: expressed in transfected cells; host or cells: BHK tk'ts 13 (transient, FuGENE 6), membranes
T2 sequence (P32214 25-479 isoform P32214-2 limits assumed): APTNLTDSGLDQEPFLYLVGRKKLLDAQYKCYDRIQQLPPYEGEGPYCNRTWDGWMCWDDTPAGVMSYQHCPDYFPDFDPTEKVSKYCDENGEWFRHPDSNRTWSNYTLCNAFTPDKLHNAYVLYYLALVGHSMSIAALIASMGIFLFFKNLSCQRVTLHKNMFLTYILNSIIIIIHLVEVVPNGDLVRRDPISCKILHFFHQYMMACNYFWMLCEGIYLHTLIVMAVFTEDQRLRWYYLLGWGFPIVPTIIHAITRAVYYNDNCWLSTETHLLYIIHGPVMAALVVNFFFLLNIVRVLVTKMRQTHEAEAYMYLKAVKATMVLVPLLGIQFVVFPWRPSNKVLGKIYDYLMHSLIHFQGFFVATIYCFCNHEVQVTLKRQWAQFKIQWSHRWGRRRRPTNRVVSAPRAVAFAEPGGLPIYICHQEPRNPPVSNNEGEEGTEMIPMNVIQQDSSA
Summary of the method: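 Rat calcitonin receptor is expressed transiently in BHK tk′ts 13 cells cultured in DMEM with 10% FBS. Roughly two days (approximately 48 hours) post-transfection, cells are harvested for membrane preparation.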

[4] = Table 5, selectivity, hCTR bind IC50 / hAmylin-R bind IC50
[5] = Table 5a, selectivity, hCTR bind IC50 / hAmylin-R bind IC50
[6] = Table 5b, selectivity, hCTR bind IC50 / hAmylin-R bind IC50
[7] = Table 5c, selectivity, hCTR bind IC50 / hAmylin-R bind IC50
[8] = Table 7, human binding selectivity, included for comparison
[9] = Table 7a (preferred compounds), human binding selectivity, included for comparison
[10] = ratio of human calcitonin receptor binding IC50 to human amylin receptor binding IC50

Row | ThT pH 4.0 lag time (h) [1] | Ratio hCT/hAmylin binding [2, 4] | Ratio hCT/hAmylin binding [2, 5] | Ratio hCT/hAmylin binding [2, 6] | Ratio hCT/hAmylin binding [2, 7] | Ratio hCT/hAmylin binding [2, 8] | Ratio hCT/hAmylin binding [2, 9] | Ratio hCT/hAmylin binding [2, 10] | IC50 [3] | SMILES
1 | 16 h | 101.0 | 101.0 | 101.0 | 101.0 | 101.0 | 101.0 | 101.0 | 131 nM | CC[C@H](C)[C@H](NC(=O)[C@H](C)NC(=O)CNC(=O)[C@H](Cc1ccccc1)NC(=O)[C@H](CC(N)=O)NC(=O)[C@@H]1CCCN1C(=O)[C@H](CO)NC(=O)[C@H](CO)NC(=O)[C@H](Cc1c[nH]cn1)NC(=O)[C@H](CCCNC(=N)N)NC(=O)[C@H](CC(C)C)NC(=O)[C@H](Cc1ccccc1)NC(=O)[C@H](C)NC(=O)[C@H](C)NC(=O)[C@H](CC(C)C)NC(=O)[C@H](CCCNC(=N)N)NC(=O)[C@H](CCC(N)=O)NC(=O)[C@@H](NC(=O)[C@H](C)NC(=O)[C@@H]1CSSC[C@H](NC(=O)[C@@H](N)CCCCNC(=O)CC[C@H](NC(=O)CCCCCCCCCCCCCCCCCCC(=O)O)C(=O)O)C(=O)N[C@@H](CC(N)=O)C(=O)N[C@@H]([C@@H](C)O)C(=O)N[C@@H](C)C(=O)N[C@@H]([C@@H](C)O)C(=O)N1)[C@@H](C)O)C(=O)N1CCC[C@H]1C(=O)N[C@@H](CO)C(=O)N[C@@H](CO)C(=O)N[C@H](C(=O)N[C@@H](CC(N)=O)C(=O)N[C@H](C(=O)NCC(=O)N[C@@H](Cc1c[nH]cn1)C(=O)N[C@@H](CC(N)=O)C(=O)N[C@H](C(=O)N[C@@H](Cc1ccc(O)cc1)C(N)=O)[C@@H](C)O)C(C)C)[C@@H](C)O [Example 93] (H-K([γGlu-C20 diacid])CNTATCATQRLAAFLRHSSPNFGAIPSSTNVGHNTY-NH2; disulfide 2-7; N-terminus assumed)
2 | 12 h | 79.6 | 79.6 | 79.6 | 79.6 | 79.6 | 79.6 | 79.6 | 62.2 nM | CC[C@H](C)[C@H](NC(=O)[C@H](C)NC(=O)CNC(=O)[C@H](Cc1ccccc1)NC(=O)[C@H](CC(N)=O)NC(=O)[C@@H]1CCCN1C(=O)[C@H](CO)NC(=O)[C@H](CO)NC(=O)[C@H](Cc1c[nH]cn1)NC(=O)[C@H](CCCNC(=N)N)NC(=O)[C@H](CC(C)C)NC(=O)[C@H](Cc1ccccc1)NC(=O)[C@H](CC(N)=O)NC(=O)[C@H](C)NC(=O)[C@H](CC(C)C)NC(=O)[C@H](CCCNC(=N)N)NC(=O)[C@H](CCC(N)=O)NC(=O)[C@@H](NC(=O)[C@H](C)NC(=O)[C@@H]1CSSC[C@H](NC(=O)[C@@H](N)CCCCNC(=O)COCCOCCNC(=O)COCCOCCNC(=O)CC[C@H](NC(=O)CCCCCCCCCCCCCCCCCCC(=O)O)C(=O)O)C(=O)N[C@@H](CC(N)=O)C(=O)N[C@@H]([C@@H](C)O)C(=O)N[C@@H](C)C(=O)N[C@@H]([C@@H](C)O)C(=O)N1)[C@@H](C)O)C(=O)N1CCC[C@H]1C(=O)N[C@@H](CO)C(=O)N[C@@H](CO)C(=O)N[C@H](C(=O)N1CCC[C@H]1C(=O)N[C@H](C(=O)NCC(=O)N[C@@H](CO)C(=O)N[C@@H](CC(N)=O)C(=O)N[C@H](C(=O)N[C@@H](Cc1ccc(O)cc1)C(N)=O)[C@@H](C)O)C(C)C)[C@@H](C)O [Example 96]
3 | 30 h | 103.7 | 103.7 | 103.7 | 103.7 | 103.7 | 103.7 | 103.7 | 159 nM | CC[C@H](C)[C@H](NC(=O)[C@H](C)NC(=O)CNC(=O)[C@H](Cc1ccccc1)NC(=O)[C@H](CC(N)=O)NC(=O)[C@@H]1CCCN1C(=O)[C@H](CO)NC(=O)[C@H](CO)NC(=O)[C@H](Cc1c[nH]cn1)NC(=O)[C@H](CCCNC(=N)N)NC(=O)[C@H](CC(C)C)NC(=O)[C@H](Cc1ccccc1)NC(=O)[C@H](CC(N)=O)NC(=O)[C@H](C)NC(=O)[C@H](CC(C)C)NC(=O)[C@H](CCCNC(=N)N)NC(=O)[C@H](CCC(N)=O)NC(=O)[C@@H](NC(=O)[C@H](C)NC(=O)[C@@H]1CSSC[C@H](NC(=O)[C@@H](N)CCCCNC(=O)COCCOCCNC(=O)COCCOCCNC(=O)CC[C@H](NC(=O)CCCCCCCCCCCCCCCCCCC(=O)O)C(=O)O)C(=O)N[C@@H](CC(N)=O)C(=O)N[C@@H]([C@@H](C)O)C(=O)N[C@@H](C)C(=O)N[C@@H]([C@@H](C)O)C(=O)N1)[C@@H](C)O)C(=O)N1CCC[C@H]1C(=O)N[C@@H](CO)C(=O)N[C@@H](CO)C(=O)N[C@H](C(=O)N[C@@H](CC(N)=O)C(=O)N[C@H](C(=O)NCC(=O)N[C@@H](Cc1c[nH]cn1)C(=O)N[C@@H](CC(N)=O)C(=O)N[C@H](C(=O)N[C@@H](Cc1ccc(O)cc1)C(N)=O)[C@@H](C)O)C(C)C)[C@@H](C)O [Example 97]
4 | 4 h | 74.1 | 74.1 | 74.1 | 74.1 | 74.1 | 74.1 | 74.1 | 24.1 nM | CC[C@H](C)[C@H](NC(=O)[C@H](C)NC(=O)CNC(=O)[C@H](Cc1ccccc1)NC(=O)[C@H](CC(N)=O)NC(=O)[C@@H]1CCCN1C(=O)[C@H](CO)NC(=O)[C@H](CO)NC(=O)[C@H](Cc1c[nH]cn1)NC(=O)[C@H](CCCNC(=N)N)NC(=O)[C@H](CC(C)C)NC(=O)[C@H](Cc1ccccc1)NC(=O)[C@H](CC(N)=O)NC(=O)[C@H](C)NC(=O)[C@H](CC(C)C)NC(=O)[C@H](CCCNC(=N)N)NC(=O)[C@H](CCC(N)=O)NC(=O)[C@@H](NC(=O)[C@H](C)NC(=O)[C@@H]1CSSC[C@H](NC(=O)[C@@H](N)CCCCNC(=O)COCCOCCNC(=O)COCCOCCNC(=O)CC[C@H](NC(=O)CCCCCCCCCCCCCCCCCCC(=O)O)C(=O)O)C(=O)N[C@@H](CC(N)=O)C(=O)N[C@@H]([C@@H](C)O)C(=O)N[C@@H](C)C(=O)N[C@@H]([C@@H](C)O)C(=O)N1)[C@@H](C)O)C(=O)N1CCC[C@H]1C(=O)N[C@@H](CO)C(=O)N[C@@H](CO)C(=O)N[C@H](C(=O)N[C@@H](CC(N)=O)C(=O)N[C@H](C(=O)NCC(=O)N1CCC[C@H]1C(=O)N[C@@H](CC(N)=O)C(=O)N[C@H](C(=O)N[C@@H](Cc1ccc(O)cc1)C(N)=O)[C@@H](C)O)C(C)C)[C@@H](C)O [Example 98]
5 | 17 h | 100.4 | 100.4 | 100.4 | 100.4 | 100.4 | 100.4 | 100.4 | 216 nM | CC[C@H](C)[C@H](NC(=O)[C@H](C)NC(=O)CNC(=O)[C@H](Cc1ccccc1)NC(=O)[C@H](CC(N)=O)NC(=O)[C@@H]1CCCN1C(=O)[C@H](CO)NC(=O)[C@H](CO)NC(=O)[C@H](Cc1c[nH]cn1)NC(=O)[C@H](CCCNC(=N)N)NC(=O)[C@H](CC(C)C)NC(=O)[C@H](Cc1ccccc1)NC(=O)[C@H](Cc1c[nH]cn1)NC(=O)[C@H](C)NC(=O)[C@H](CC(C)C)NC(=O)[C@H](CCCNC(=N)N)NC(=O)[C@H](CCC(N)=O)NC(=O)[C@@H](NC(=O)[C@H](C)NC(=O)[C@@H]1CSSC[C@H](NC(=O)[C@H](CCCNC(=N)N)NC(=O)CNC(=O)CC[C@H](NC(=O)CCCCCCCCCCCCCCCCCCC(=O)O)C(=O)O)C(=O)N[C@@H](CC(N)=O)C(=O)N[C@@H]([C@@H](C)O)C(=O)N[C@@H](C)C(=O)N[C@@H]([C@@H](C)O)C(=O)N1)[C@@H](C)O)C(=O)N1CCC[C@H]1C(=O)N[C@@H](CO)C(=O)N[C@@H](CO)C(=O)N[C@H](C(=O)N[C@@H](CC(N)=O)C(=O)N[C@H](C(=O)NCC(=O)N[C@@H](CO)C(=O)N[C@@H](CC(N)=O)C(=O)N[C@H](C(=O)N[C@@H](Cc1ccc(O)cc1)C(N)=O)[C@@H](C)O)C(C)C)[C@@H](C)O [Example 99] ({C20 diacid-γGlu}-GRCNTATCATQRLAHFLRHSSPNFGAIPSSTNVGSNTY-NH2; disulfide 3-8)
